Tests used:
[1] = target: T1, angiotensin II (A-II) receptor (Bos taurus, UniProt P25104); test: Inhibitory Effect of Binding of Angiotensin-II to Angiotensin Receptor (radioreceptor assay, 125I-AII, adrenal cortex membrane fraction); conditions: bovine adrenal cortex membrane, room temperature, one hour
T1 construct: An A-II receptor membrane fraction was prepared from bovine adrenal cortex; from tissue; host or cells: bovine adrenal cortex membrane fraction
T1 sequence (P25104 1-359): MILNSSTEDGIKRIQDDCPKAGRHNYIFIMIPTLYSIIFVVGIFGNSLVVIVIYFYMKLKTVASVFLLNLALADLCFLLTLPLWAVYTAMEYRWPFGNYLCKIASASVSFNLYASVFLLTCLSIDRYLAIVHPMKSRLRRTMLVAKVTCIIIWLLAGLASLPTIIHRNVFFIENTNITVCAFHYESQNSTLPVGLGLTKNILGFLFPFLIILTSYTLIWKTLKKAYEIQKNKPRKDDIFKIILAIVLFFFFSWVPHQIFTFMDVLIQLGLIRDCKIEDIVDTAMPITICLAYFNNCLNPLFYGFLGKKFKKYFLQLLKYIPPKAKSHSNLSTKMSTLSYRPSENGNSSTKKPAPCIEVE
Description: Inhibitory Effect of Binding of Angiotensin-II to Angiotensin Receptor
An A-II receptor membrane fraction was prepared from bovine adrenal cortex.

[2] = tested on: A-II-induced pressor action; test: Inhibitory Effect of the Compound of the Present Invention on Pressor Action of AII (p.o.); format: in vivo, rat (Jcl: SD); conditions: rat, AII 100 ng/kg i.v.; for inhibition in vivo at 1 mg/kg / inhibition in vivo at 3 mg/kg: po, read-out: Pressor Response to A II (p.o.), percent inhibition class; for inhibition in vivo at 3 mg/kg: 3 mg/kg p.o.
Description: Inhibitory Effect of the Compound of the Present Invention on Pressor Action of AII
Jcl: SD rat (9 week old, male) were employed. On the day prior to the experiment, these animals were applied with cannulation into the femoral artery and vein under anesthesia with pentobarbital Na. These animals were fasted but allowed to free access to drinking water until the experiment was started. Just on the day of conducting the experiment, the artery cannula was connected with a blood-pressure transducer, and the average blood pressure was recorded by means of polygraph. Before administration of the drug, the pressor action due to intravenous administration of AII (100 ng/kg) as the control was determined. The drugs were orally administered, then, at each point of the determination, A-II was administered intravenously, and the pressor action was similarly determined. By comparing the pressor action before and after administration of the drug, the percent inhibition by the drug on A-II-induced pressor action was evaluated.

[3] = reported in literature; cited from earlier work

inhibition at 1 µM ([1]; 10^-6 M) [%] | inhibition at 0.1 µM ([1]; 10^-7 M) [%] | Molecule | inhibition in vivo at 1 mg/kg ([2]; 1 mg/kg p.o.) [%] | inhibition in vivo at 3 mg/kg [2] [%] | angiotensin II antagonist activity [3] | Radioreceptor assay % inhibition ([1]; 10^-6 M) [%] | Radioreceptor assay % inhibition ([1]; 10^-7 M) [%] | Pressor Response to A II (p.o.), percent inhibition class ([2]; 1 mg/kg p.o.)
79 | 34 | CCOc1nc2cccc(C(=O)O)c2n1Cc1ccc(-c2ccccc2-c2nc(=O)o[nH]2)cc1 [Example 1, 2-Ethoxy-1-[[2'-(2,5-dihydro-5-oxo-1,2,4-oxadiazol-3-yl)biphenyl-4-yl]methyl]benzimidazole-7-carboxylic Acid] | > 70 | > 70 |  |  |  | 
75 | 33 | CCOc1nc2cccc(C(=O)OC)c2n1Cc1ccc(-c2ccccc2C2=NOS(=O)N2)cc1 (centres unmarked) [Example 3, Methyl 2-ethoxy-1-[[2'-(2-oxo-3H-1,2,3,5-oxathiadiazol-4-yl)biphenyl]methyl]benzimidazole-7-carboxylate] |  | > 70 |  |  |  | 
44 | 17 | CCOc1nc2cccc(C(=O)OC(C)OC(=O)OC3CCCCC3)c2n1Cc1ccc(-c2ccccc2-c2nc(=O)o[nH]2)cc1 (centres unmarked) [Example 4, 1-(Cyclohexyloxycarbonyloxy)ethyl 2-ethoxy-1-[[2'-(2,5-dihydro-5-oxo-1,2,4-oxadiazol-3-yl)biphenyl-4-yl]methyl]benzimidazole-7-carboxylate] | > 70 |  |  |  |  | 
40 | 8 | CCSc1nc2c(C)sc(C(=O)O)c2n1Cc1ccc(-c2ccccc2-c2noc(=O)[nH]2)cc1 [Example 8, 2-Ethylthio-1-[[2'-(2,5-dihydro-5-oxo-1,2,4-oxadiazol-3-yl)biphenyl-4-yl]methyl]-4-methylthieno[3,4-d]imidazole-6-carboxylic Acid] | > 70 |  |  |  |  | 
55 | 19 | COc1nc2c(C)sc(C(=O)O)c2n1Cc1ccc(-c2ccccc2-c2nc(=O)o[nH]2)cc1 [Example 9, 2-Methoxy-1-[[2'-(2,5-dihydro-5-oxo-1,2,4-oxadiazol-3-yl)biphenyl-4-yl]methyl]-4-methylthieno[3,4-d]imidazole-6-carboxylic Acid] | > 70 | > 70 |  |  |  | 
51 | 17 | CCOc1nc2c(C)sc(C(=O)O)c2n1Cc1ccc(-c2ccccc2-c2nc(=O)o[nH]2)cc1 [Example 10, 2-Ethoxy-1-[[2'-(2,5-dihydro-5-oxo-1,2,4-oxadiazol-3-yl)biphenyl-4-yl]methyl]-4-methylthieno[3,4-d]imidazole-6-carboxylic Acid] | > 70 |  |  |  |  | 
41 |  | CCCOc1nc2c(C)sc(C(=O)O)c2n1Cc1ccc(-c2ccccc2-c2nc(=O)o[nH]2)cc1 [Example 11, 1-[2'-(2,5-Dihydro-5-oxo-1,2,4-oxadiazol-3-yl)biphenyl-4-yl]methyl-4-methyl-2-n-propoxythieno[3,4-d]imidazole-6-carboxylic Acid] | > 70 |  |  |  |  | 
78 | 46 | CCNc1nc2c(C)sc(C(=O)O)c2n1Cc1ccc(-c2ccccc2-c2nc(=O)o[nH]2)cc1 [Example 12, 2-Ethylamino-1-[[2'-(2,5-dihydro-5-oxo-1,2,4-oxadiazol-3-yl)biphenyl-4-yl]methyl]-4-methylthieno[3,4-d]imidazole-6-carboxylic Acid] | < 50 |  |  |  |  | 
77 | 35 | CCCc1nc2cccc(C(=O)O)c2n1Cc1ccc(-c2ccccc2-c2nc(=O)o[nH]2)cc1 [Example 30, 1-[[2'-(2,5-Dihydro-5-oxo-1,2,4-oxadiazol-3-yl)biphenyl-4-yl]methyl]-2-propylbenzimidazole-7-carboxylic Acid] | > 70 |  |  |  |  | 
79 | 41 | CCc1nc2cccc(C(=O)O)c2n1Cc1ccc(-c2ccccc2-c2nc(=O)o[nH]2)cc1 [Example 31, 2-Ethyl-1-[[2'-(2,5-dihydro-5-oxo-1,2,4-oxadiazol-3-yl)-biphenyl-4-yl]methyl]benzimidazole-7-carboxylic Acid] | > 70 |  |  |  |  | 
75 | 27 | O=C(O)c1cccc2nc(C3CC3)n(Cc3ccc(-c4ccccc4-c4noc(=O)[nH]4)cc3)c12 [Example 32, 2-Cyclopropyl-1-[[2'-(2,5-dihydro-5-oxo-1,2,4-oxadiazol-3-yl)biphenyl-4-yl]methyl]benzimidazole-7-carboxylic acid] | > 70 |  |  |  |  | 
79 | 40 | COC(=O)c1cccc2nc(C3CC3)n(Cc3ccc(-c4ccccc4-c4nc(=O)o[nH]4)cc3)c12 [Example 32c, Methyl 2-cyclopropyl-1-[[2'-(2,5-dihydro-5-oxo-1,2,4-oxadiazol-3-yl)biphenyl-4-yl]methyl]-benzimidazole-7-carboxylate] | > 70 |  |  |  |  | 
70 | 23 | CCCCc1nc2cccc(C(=O)O)c2n1Cc1ccc(-c2ccccc2-c2noc(=O)[nH]2)cc1 [Example 33, 2-Butyl-1-[[2'-(2,5-dihydro-5-oxo-1,2,4-oxadiazol-3-yl)-biphenyl-4-yl]methyl]benzimidazole-7-carboxylic acid] | 50 to 70 |  |  |  |  | 
79 | 38 | COc1nc2cccc(C(=O)O)c2n1Cc1ccc(-c2ccccc2-c2noc(=O)[nH]2)cc1 [Example 35, 1-[[2'-(2,5-Dihydro-5-oxo-1,2,4-oxadiazol-3-yl)biphenyl-4-yl]methyl]-2-methoxybenzimidazole-7-carboxylic acid] | > 70 |  |  |  |  | 
60 | 18 | CCCOc1nc2cccc(C(=O)O)c2n1Cc1ccc(-c2ccccc2-c2nc(=O)o[nH]2)cc1 [Example 36, 1-[[2'-(2,5-Dihydro-5-oxo-1,2,4-oxadiazol-3-yl)biphenyl-4-yl]methyl]-2-propoxybenzimidazole-7-carboxylic acid] | > 70 |  |  |  |  | 
94 | 80 | CCc1nc2c(C)cc(C(=O)O)nc2n1Cc1ccc(-c2ccccc2-c2nc(=O)o[nH]2)cc1 [Example 56, 2-Ethyl-3-[[2'-(2,5-dihydro-5-oxo-1,2,4-oxadiazol-3-yl)biphenyl-4-yl]methyl]-7-methylimidazo[4,5-b]pyridine-5-carboxylic acid] | > 70 |  |  |  |  | 
84 | 43 | CCOc1nc2cccc(C(=O)OC)c2n1Cc1ccc(-c2ccccc2-c2nc(=O)s[nH]2)cc1 [Example 60, Methyl 2-ethoxy-1-[[2'-(2,5-dihydro-5-oxo-1,2,4-thiadiazol-3-yl)biphenyl-4-yl]methyl]benzimidazole-7-carboxylate] | > 70 |  |  |  |  | 
 |  | CNCC(=O)N[C@@H](CCCN=C(N)N)C(=O)N[C@H](C(=O)N[C@@H](Cc1ccc(O)cc1)C(=O)N[C@H](C(=O)N[C@@H](Cc1cnc[nH]1)C(=O)N1CCC[C@H]1C(=O)N[C@@H](C)C(=O)O)C(C)C)C(C)C [saralasin] |  |  | potent |  |  | 
 |  | Acetoxymethyl 1-[[2'-(4-acetoxymethyl-4,5-dihdyro-5-oxo-4H-1,2,4-oxadiazol-3-yl)biphenyl-4-yl]methyl]-2-ethoxybenzimidazole-7-carboxylate [Example 13] |  |  |  | 69 | 31 | +++ (+++ ≥ 70%)
